Assay results as given in patent US10859504B2, “Degradable cationic surfactants and use thereof in enhancing chemiluminescence” (Siemens Healthcare Diagnostics Inc., priority 2013, dated 2020).

Experiments:
[1] = cited from earlier work
[2] = Chemiluminescence measurement of anti-TSH antibody conjugate of acridinium ester 3c with cationic surfactants; details: for Observed enhancement (fold) of chemiluminescence: no surfactant control = 1; for Observed acceleration of emission kinetics (time to >90% emission): without surfactant 62.5 seconds
Procedure: (§1) To study the impact of degradable cationic surfactants on acridinium ester chemiluminescence, two exemplary cationic surfactants containing cleavable linkages (FIG. 2A) were selected. The synthetic schemes for the two surfactants are illustrated in FIGS. 3-4 and described in Examples 1 and 2 above. Both surfactants were dissolved in Reagent 1 (0.1 M nitric acid containing 0.5% hydrogen peroxide) at five times their reported CMCs in water. CTAC dissolved in Reagent 2 (0.25 M NaOH) was used as the control surfactant. The two carbonate and amide cationic surfactants (FIG. 2A) were dissolved in Reagent 1 to preserve stability, especially during long term storage (Stjerndahl and Holmberg, J. Colloid and Interface Sci., 2005, 291, 570-576). Three acridinium esters (FIG. 2B, compounds 3a, 3b and 3c) were used to make protein conjugates of an anti-TSH antibody (TS=thyroid stimulating hormone) as described in the literature (Natrajan et al, Org. Biomol. Chem., 2011, 9, 5092-5103; Natrajan et al, Org. Biomol. Chem., 2012, 10, 3432-3447). The conjugates contained approximately 5 labels. The conjugates were stored at 4° C. in buffer and chemiluminescence from each conjugate was measured in the absence of surfactant and in the presence of CTAC as well as cationic surfactants 1 and 2 (Tables 1-3, FIGS. 5-7). The ability of each surfactant to (a) increase total light output and (b) accelerate emission kinetics was evaluated over a period of 80 days.
(§2) Chemiluminescence of anti-TSH antibody conjugates of acridinium esters 3a, 3b and 3c (FIG. 2B) was measured on an Autolumat LB953 Plus luininometer from Behold Technologies. The conjugates, ˜2 mg/mL containing approximately five labels, were serially diluted 10^5-fold for chemiluminescence measurements in an aqueous buffer of 10 mM disodium hydrogen phosphate, 0.15 M NaCl and 8 mM sodium azide and 0.015 mM bovine serum albumin (BSA), pH 8.0. A 0.010 mL volume of each diluted acridinium ester sample was dispensed into the bottom of a cuvette. Cuvettes were placed into the primed LB953 and the chemiluminescence reaction was initiated with the sequential addition of 0.3 mL of Reagent 1, a solution of 0.5% hydrogen peroxide in 0.1 M nitric acid followed by the addition of 0.3 mL of Reagent 2, a solution of 0.25 M sodium hydroxide. For measurements in the presence of CTAC, the surfactant (7 mM) was included in Reagent 2. For measurements in the presence of the cationic amide surfactant 1 or the cationic carbonate surfactant 2, each surfactant was dissolved in Reagent 1 at 3.2 mM (surfactant 1) and 2.15 mM (surfactant 2). Each chemiluminescence flash curve was measured in 240 intervals of 0.5 second (120 seconds total time). Each chemiluminescence reaction was carried out a minimum of three times, averaged and converted to a percentage of the chemiluminescence accumulated up to each time interval. The output from the luminometer instrument was expressed as R.L.U.s (Relative Light Units).

[3] = Chemiluminescence measurement of anti-TSH antibody conjugate of acridinium ester 3b with cationic surfactants; details: for Observed enhancement (fold) of chemiluminescence: no surfactant control = 1; for Observed acceleration of emission kinetics (time to >90% emission): without surfactant 49.5 seconds
Procedure: as §1, §2

[4] = Chemiluminescence measurement of anti-TSH antibody conjugate of acridinium ester 3a with cationic surfactants; details: for Observed enhancement (fold) of chemiluminescence: no surfactant control = 1; for Observed acceleration of emission kinetics (time to >90% emission): without surfactant 57.5 seconds
Procedure: as §1, §2

In the case of `CCCCCCCCCCCCCCCC[N+](C)(C)C.[Cl-]` [CTAC, cetyltrimethylammonium chloride, reference compound], the “increase of overall light output” value ([1]; acridinium ester labels and their conjugates) is listed as 3-4 fold, the “emission time of the labels” value ([1]; compressed from approximately 60 s, 7 mM CTAC in 0.25 M sodium hydroxide) is listed as less than 5 s and the “Observed enhancement (fold) of chemiluminescence” value (from here on “Observed enhancement (fold)”) ([2]; Day 1) is listed as 4.1 fold. The “Observed acceleration of emission kinetics (time to >90% emission)” value ([2]; Day 1) was 2.0 s, the “Observed enhancement (fold)” value ([2]; Day 10) was 4.3 fold and the “Observed acceleration of emission kinetics (time to >90% emission)” value ([2]; Day 10) was 2.0 s. The “Observed enhancement (fold)” value ([2]; Day 20) was 4.6 fold, the “Observed acceleration of emission kinetics (time to >90% emission)” value ([2]; Day 20) was 2.5 s and the “Observed enhancement (fold)” value ([2]; Day 40) was 3.9 fold. For the same compound, the “Observed acceleration of emission kinetics (time to >90% emission)” value ([2]; Day 40) was 2.5 s, the “Observed enhancement (fold)” value ([2]; Day 80) was 4.0 fold and the “Observed acceleration of emission kinetics (time to >90% emission)” value ([2]; Day 80) was 2.5 s. For the same compound, the “Observed enhancement (fold)” value ([3]; Day 1) was 5.3 fold, the “Observed acceleration of emission kinetics (time to >90% emission)” value ([3]; Day 1) was 1.0 s and the “Observed enhancement (fold)” value ([3]; Day 10) was 5.2 fold. The “Observed acceleration of emission kinetics (time to >90% emission)” value ([3]; Day 10) was 1.0 s, the “Observed enhancement (fold)” value ([3]; Day 20) was 5.5 fold and the “Observed acceleration of emission kinetics (time to >90% emission)” value ([3]; Day 20) was 1.0 s. The “Observed enhancement (fold)” value ([3]; Day 40) was 4.2 fold, the “Observed acceleration of emission kinetics (time to >90% emission)” value ([3]; Day 40) was 1.0 s and the “Observed enhancement (fold)” value ([3]; Day 80) was 4.6 fold. The “Observed acceleration of emission kinetics (time to >90% emission)” value ([3]; Day 80) was 1.0 s, the “Observed enhancement (fold)” value ([4]; Day 1) was 3.5 fold and the “Observed acceleration of emission kinetics (time to >90% emission)” value ([4]; Day 1) was 1.5 s. For the same compound, the “Observed enhancement (fold)” value ([4]; Day 10) was 3.6 fold, the “Observed acceleration of emission kinetics (time to >90% emission)” value ([4]; Day 10) was 1.5 s and the “Observed enhancement (fold)” value ([4]; Day 20) was 4.0 fold. The “Observed acceleration of emission kinetics (time to >90% emission)” value ([4]; Day 20) was 1.5 s, the “Observed enhancement (fold)” value ([4]; Day 40) was 3.4 fold and the “Observed acceleration of emission kinetics (time to >90% emission)” value ([4]; Day 40) was 1.5 s. The “Observed enhancement (fold)” value ([4]; Day 80) was 3.5 fold, the “Observed acceleration of emission kinetics (time to >90% emission)” value ([4]; Day 80) was 1.5 s and the accelerated emission kinetics ([4]; as shown in Table 1b, from 57.5 seconds without surfactant) was 1.5 s.
